Several values for one entry are separate records, joined by “and”; a condition that tells them apart may be missing. Equal values may be shown once. Entries after “also recorded” stand apart in the source; their conditions may differ. Read-outs that look alike come from different tables or passages of the source.
Assays:
[1] = Body weight of tumor bearing CBA mice (Ehrlich carcinoma); assay type: in vivo
[2] = O2^- scavenging / SOD activity, DMSO-KO2 nitro blue tetrazolium method; assay type: biochemical; settings: mean
Protocol: The SOD activity of Orgotein and of tumor homogenates is assayed by the method of Beauchamp and Fridovich. Reaction mixtures contain 0.05M potassium phosphate buffer (pH 7.8) with 10^-3 M diethylenetriaminepentaacetic acid, 10^-4 M of xanthine, 5.6×10^-5 M of nitro blue tetrazolium, 10^-3 units of xanthine oxidase and 1 unit of catalase. Addition of 5×10^-3 M NaCN to this mixture inhibits CuZnSOD activity and allows the measurement of the activity of the cyanid insensitive MnSOD alone. The rate of blue formazan formation is measured by following the change of absorbance at 560 nm with a Cary Model 15 spectrophotometer. The sensitivity of the assay was such that 1 unit equaled 14±1 ng of pure erythrocyte SOD. The amount of protein in each sample is assayed using a conventional method. […] After bones and muscles are removed, the tumor tissue is rinsed and minced in 0.05 M potassium phosphate buffer (pH 7.8) and homogenized in a motor-driven Teflon pestle homogenizer. […] CuDIPS is dissolved in 10% Tween 80-saline. This alternate method is chosen due to the length of previous procedure and lipid insolubility of some of the reactants of the previous assay. Free O2^- is released when DMSO-KO2 is added to an aqueous solution. […] The formation of blue formazan is determined by recording the final absorbance of the assay mixture at 560 nm with a Cary Model 15 spectrophotometer. […]

[3] = test system: neuroblastoma cell clone NBP2; assay type: cell-based, mouse; settings: 3 days; for % differentiation: control 8.0 ± 3.7; for % differentiation / Cell number ×10^5: mean ± S.D.; for Cell number ×10^5: control 17.1 ± 1.9
Protocol: The neuroblastoma cell clone NBP2 provided by Dr. K. N. Prasad (University of Colorado), is maintained according to the procedure of Prasad and Hsie, Prasad, K. N. and Hsie, A. N., Nature New Biol. 233:141 (1971), hereby incorporated by reference. Cells are grown as a monolayer in 75 cm^2 Falcon plastic tissue culture flasks containing F-12 medium supplemented with 10% gamma globulin-free new born calf serum, penicillin (100 U/ml) and streptomycin (100 μg/ml). Cultures are maintained in a humidified atmosphere of 5% CO2 in a water jacketed incubator at 37° C. […] Only exponentially growing cells are used in the experiment. […] Medium, serum, antibiotics, and pancreatin are purchased from Grand Island Biological Company. […] Fifty-thousand cells were seeded in each […] plastic petri dish containing 5 ml of the growth medium. Cells are treated with CuDIPS 24 hours after seeding. CuDIPS is dissolved in ethanol to give a final concentration of 10, 25, or 50 μg/ml of copper compound in the medium. The concentration of ethanol in the medium is kept constant at 1% in all the treated and control dishes. Culture dishes containing 1% ethanol serve as controls. One day after the start of treatments and daily afterwards, fresh drug and medium are provided in each dish. To avoid possible degradation, CuDIPS is dissolved in ethanol immediately before use. The experiment is done in triplicate. Three days after the initial treatments the number of cells and percent differentiation of cells are scored in each dish. Four hundred cells per culture dish from at least three different regions are examined with a Leitz Divert phase contrast microscope. Cells with one or more processes at least twice as long as the soma diameter (processes usually longer than 50 microns) are scored as differentiated. To count the number of cells, cells are harvested with Pancreatin and the number of cells in each dish is determined by counting cells in a hemocytometer.

[4] = rats, subcutaneous; reported; cited from earlier work
[5] = Acute toxicity LD50, subcutaneous, rats
[6] = Acute toxicity LD50, subcutaneous, mice
[7] = SOD activity, xanthine-xanthine oxidase nitro blue tetrazolium method (Beauchamp and Fridovich); assay type: biochemical
Protocol: Orgotein, a generic name for CuZnSOD derived from bovine liver, is obtained from Diagnostic Data Incorporated, Mountain View, California. It is 98% pure CuZnSOD isolated from bovine liver and had 3,300 units of pure erythrocyte SOD activity/mg protein when assayed by the method of Beauchamp, C. and Fridovich, I., Superoxide Dismutase: Improved Assays and an Assay Applicable to Acrylamide Gel., Anal. Biochem. 44:276-287 (1971), hereby incorporated by reference. Orgotein was dissolved in USP grade nonpyrogenic sterile saline.
The SOD activity of Orgotein and of tumor homogenates is assayed by the method of Beauchamp and Fridovich. Reaction mixtures contain 0.05M potassium phosphate buffer (pH 7.8) with 10^-3 M diethylenetriaminepentaacetic acid, 10^-4 M of xanthine, 5.6×10^-5 M of nitro blue tetrazolium, 10^-3 units of xanthine oxidase and 1 unit of catalase. […] The rate of blue formazan formation is measured by following the change of absorbance at 560 nm with a Cary Model 15 spectrophotometer. […] O2^- scavenging ability of CuDIPS is determined by a similar assay method; the only difference is that dimethyl sulfoxide (DMSO) solvated potassium superoxide (KO2) is used to generate O2^- instead of xanthine and xanthine oxidase. […] The formation of blue formazan is determined by recording the final absorbance of the assay mixture at 560 nm with a Cary Model 15 spectrophotometer. […]

[8] = test system: Sarcoma 180 cells; experiment: Tumor growth and survival of CF1 mice implanted with Sarcoma 180 cells; assay type: in vivo
Protocol: Autopsies are performed on all dead animals.

[9] = test system: Sarcoma 180 cells; experiment: Viability of Sarcoma 180 cells incubated in Orgotein; assay type: cell-based, mice; settings: 2.5×10^7 cells/ml; 0.8 mg/ml, one hour
Protocol: Table II and Chart II show the survival times of these tumor bearing mice; there is a 23% increase in mean survival time in the Orgotein treated group (p less than 0.1). Viability of the Sarcoma 180 cells (2.5×10^7 cells/ml) is unchanged when they are incubated in 0.8 mg/ml Orgotein for one hour, showing that the effect of Orgotein is probably not due to cytotoxicity.

[10] = 50 μg/ml, listed as Cu(II)(3,5-diisopropylsalicylate)2

O=S(=O)([O-])[O-].[Cu+2] [CuSO4, copper sulfate]
body weight change ([1]; CuSO4 0.5 mg in 0.1 ml, 5 days): continuous loss of weight

CC(C)c1cc(C(=O)O)c(O)c(C(C)C)c1 [DIPS, diisopropylsalicylic acid]
body weight change ([1]; DIPS i.m., single doses): loss of body weight

CC(C)c1cc(C(=O)[O-])c(O)c(C(C)C)c1.CC(C)c1cc(C(=O)[O-])c(O)c(C(C)C)c1.[Cu+2] [CuDIPS, Cu(II) (3,5-diisopropylsalicylate)2]
SOD activity [2]: 17,400±1,800 units of SOD activity/mg of the compound
% differentiation ([3]; 10 μg/ml, listed as Cu(II)(3,5-diisopropylsalicylate)2): 7.4 ± 2.6%
Cell number ×10^5 ([3]; 10 μg/ml, p less than 0.05): a small reduction in the number of cells per culture dish
Cell number ×10^5 ([3]; 10 μg/ml, p less than 0.05, listed as Cu(II)(3,5-diisopropylsalicylate)2): 12.7 ± 1.4 ×10^5
cell population relative to control ([3]; 25 μg/ml): less than half of the cell population
% differentiation ([3]; 25 μg/ml): 22.4±2.6%
% differentiation ([3]; 25 μg/ml, listed as Cu(II)(3,5-diisopropylsalicylate)2): 22.4 ± 2.6%
Cell number ×10^5 ([3]; 25 μg/ml, per culture dish): 7.1±1.2 ×10^5
Cell number ×10^5 ([3]; 25 μg/ml, per culture dish, listed as Cu(II)(3,5-diisopropylsalicylate)2): 7.1 ± 1.2 ×10^5
morphology of treated cells ([3]; 50 μg/ml): morphologically resembles mature neural cells
% differentiation ([3]; 50 μg/ml): 74.2±4.9%
% differentiation [3, 10]: 74.2 ± 4.9%
Cell number ×10^5 ([3]; 50 μg/ml): a remarkable reduction in cell population
Cell number ×10^5 [3, 10]: 1.4 ± 0.6 ×10^5
body weight change ([1]; mouse, in vivo): no weight loss was observed
LD50 [4]: 240 mg/kg and 240 ± 33 mg/kg

CC(=O)Oc1ccccc1C(=O)[O-].CC(=O)Oc1ccccc1C(=O)[O-].CC(=O)Oc1ccccc1C(=O)[O-].CC(=O)Oc1ccccc1C(=O)[O-].[Cu+2].[Cu+2] [Cu(II)2 (aspirinate)4]
LD50 [5]: 760 mg/kg
LD50 [6]: greater than 320 mg/kg

Orgotein: generic name for CuZnSOD derived from bovine liver
SOD activity of Orgotein as obtained ([7]; method of Beauchamp and Fridovich): 3,300 units of pure erythrocyte SOD activity/mg protein
SOD activity ([7]; xanthine-xanthine oxidase method): 49,500±300 units of SOD activity/mg protein
tumor growth curve vs control after 27 days ([8]; 1.2 mg at 1 hour after implantation, after 27 days): the growth curves are the same
reduction in tumor size ([8]; 1.2 mg at 1 hour after implantation, p less than 0.05 between 11 and 27 days): reduction of tumor size; also recorded: a reduction in tumor size is observed
Maximum Survival Time ([8]; 1.2 mg i.m. at 1 hour): 90 days
Median Survival Time ([8]; 1.2 mg i.m. at 1 hour): 53 days
Mean Survival Time ([8]; 1.2 mg i.m. at 1 hour, ± standard error, p less than 0.1): 53 ± 5 days
increase in mean survival time ([8]; Orgotein treated group, p less than 0.1): 23%
effect on tumor growth and survival ([8]; local injection, Sarcoma 180): a slight effect on the tumor growth and survival
tumor growth / survival, delayed treatment ([8]; same dose given 5 or 10 days after transplantation): no significant decrease in tumor growth or increase in survival is observed
Viability of the Sarcoma 180 cells [9]: unchanged

Reference: patent publication US4952607A, “Copper complex for treating cancer” (priority 1986, dated 1990)
